Results reported in the supplement of paper PMC10307832.

How the values were obtained:
Assay in all cases: relative viability (nuclei count vs DMSO), 5 days (fraction); higher = more cells survive
Linifanib + Trametinib = compound: Cc1ccc(F)c(NC(=O)Nc2ccc(-c3cccc4[nH]nc(N)c34)cc2)c1 [Linifanib] + CC(=O)Nc1cccc(-n2c(=O)n(C3CC3)c(=O)c3c(Nc4ccc(I)cc4F)n(C)c(=O)c(C)c32)c1 [Trametinib] (partner 0.02 µM)
Summary of the method: (§1)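 Lung cancer cell lines in 1536-well plates were dosed by pin tool the day after seeding, either with one drug alone or with a fixed anchor-drug dose plus five library-drug doses (not always all listed) in √10 steps. After 5 days, cells were fixed and their nuclei stained in one step (final 0.05% Triton X-100, 1% formaldehyde, 1 ug/ml Hoechst), then counted on 4× images. Relative viability is the nuclei count in treated wells divided by that in vehicle wells. Values are medians of duplicate plates.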

Linifanib + Vorinostat = compound: Cc1ccc(F)c(NC(=O)Nc2ccc(-c3cccc4[nH]nc(N)c34)cc2)c1 [Linifanib] + O=C(CCCCCCC(=O)Nc1ccccc1)NO [Vorinostat] (partner 1 µM)
Summary of the method: as §1

Linifanib + Dasatinib = compound: Cc1ccc(F)c(NC(=O)Nc2ccc(-c3cccc4[nH]nc(N)c34)cc2)c1 [Linifanib] + Cc1nc(Nc2ncc(C(=O)Nc3c(C)cccc3Cl)s2)cc(N2CCN(CCO)CC2)n1 [Dasatinib] (partner 0.075 µM)
Summary of the method: as §1

Linifanib + OSI-027 = compound: Cc1ccc(F)c(NC(=O)Nc2ccc(-c3cccc4[nH]nc(N)c34)cc2)c1 [Linifanib] + COc1cccc2cc(-c3nc([C@H]4CC[C@H](C(=O)O)CC4)n4ncnc(N)c34)[nH]c12 [OSI-027] (partner 0.5 µM)
Summary of the method: as §1

Linifanib + Decitabine = compound: Cc1ccc(F)c(NC(=O)Nc2ccc(-c3cccc4[nH]nc(N)c34)cc2)c1 [Linifanib] + Nc1ncn([C@H]2C[C@H](O)[C@@H](CO)O2)c(=O)n1 [Decitabine] (partner 2 µM)
Summary of the method: as §1

Linifanib + Lapatinib = compound: Cc1ccc(F)c(NC(=O)Nc2ccc(-c3cccc4[nH]nc(N)c34)cc2)c1 [Linifanib] + CS(=O)(=O)CCNCc1ccc(-c2ccc3ncnc(Nc4ccc(OCc5cccc(F)c5)c(Cl)c4)c3c2)o1 [Lapatinib] (partner 2 µM)
Summary of the method: as §1

NCI-H322M
relative viability (Linifanib + Trametinib; first compound 0.03162 µM): 0.549 | relative viability (Linifanib + Trametinib; first compound 0.1 µM): 0.345 | relative viability (Linifanib + Trametinib; first compound 0.3162 µM): 0.506 | relative viability (Linifanib + Vorinostat; first compound 0.03162 µM): 0.848 | relative viability (Linifanib + Vorinostat; first compound 0.1 µM): 0.914 | relative viability (Linifanib + Vorinostat; first compound 0.3162 µM): 0.876 | relative viability (Linifanib + Dasatinib; first compound 0.03162 µM): 0.253 | relative viability (Linifanib + Dasatinib; first compound 0.1 µM): 0.256 | relative viability (Linifanib + Dasatinib; first compound 0.3162 µM): 0.216 | relative viability (Linifanib + OSI-027; first compound 0.03162 µM): 0.629 | relative viability (Linifanib + OSI-027; first compound 0.1 µM): 0.584 | relative viability (Linifanib + OSI-027; first compound 0.3162 µM): 0.503 | relative viability (Linifanib + Decitabine; first compound 0.03162 µM): 0.732 | relative viability (Linifanib + Decitabine; first compound 0.1 µM): 0.697 | relative viability (Linifanib + Decitabine; first compound 0.3162 µM): 0.77 | relative viability (Linifanib + Lapatinib; first compound 0.03162 µM): 0.582 | relative viability (Linifanib + Lapatinib; first compound 0.1 µM): 0.539 | relative viability (Linifanib + Lapatinib; first compound 0.3162 µM): 0.537

NCI-H358
relative viability (Linifanib + Trametinib; first compound 0.03162 µM): 0.121 | relative viability (Linifanib + Trametinib; first compound 0.1 µM): 0.121 | relative viability (Linifanib + Trametinib; first compound 0.3162 µM): 0.137 | relative viability (Linifanib + Vorinostat; first compound 0.03162 µM): 0.72 | relative viability (Linifanib + Vorinostat; first compound 0.1 µM): 0.723 | relative viability (Linifanib + Vorinostat; first compound 0.3162 µM): 0.803 | relative viability (Linifanib + Dasatinib; first compound 0.03162 µM): 0.175 | relative viability (Linifanib + Dasatinib; first compound 0.1 µM): 0.204 | relative viability (Linifanib + Dasatinib; first compound 0.3162 µM): 0.205 | relative viability (Linifanib + OSI-027; first compound 0.03162 µM): 0.836 | relative viability (Linifanib + OSI-027; first compound 0.1 µM): 1.06 | relative viability (Linifanib + OSI-027; first compound 0.3162 µM): 0.748 | relative viability (Linifanib + Decitabine; first compound 0.03162 µM): 0.231 | relative viability (Linifanib + Decitabine; first compound 0.1 µM): 0.218 | relative viability (Linifanib + Decitabine; first compound 0.3162 µM): 0.213 | relative viability (Linifanib + Lapatinib; first compound 0.03162 µM): 0.531 | relative viability (Linifanib + Lapatinib; first compound 0.1 µM): 0.543 | relative viability (Linifanib + Lapatinib; first compound 0.3162 µM): 0.433

NCI-H441
relative viability (Linifanib + Trametinib; first compound 0.03162 µM): 0.457 | relative viability (Linifanib + Trametinib; first compound 0.1 µM): 0.518 | relative viability (Linifanib + Trametinib; first compound 0.3162 µM): 0.409 | relative viability (Linifanib + Vorinostat; first compound 0.03162 µM): 0.626 | relative viability (Linifanib + Vorinostat; first compound 0.1 µM): 0.81 | relative viability (Linifanib + Vorinostat; first compound 0.3162 µM): 0.658 | relative viability (Linifanib + Dasatinib; first compound 0.03162 µM): 0.646 | relative viability (Linifanib + Dasatinib; first compound 0.1 µM): 0.705 | relative viability (Linifanib + Dasatinib; first compound 0.3162 µM): 0.639 | relative viability (Linifanib + OSI-027; first compound 0.03162 µM): 0.588 | relative viability (Linifanib + OSI-027; first compound 0.1 µM): 0.767 | relative viability (Linifanib + OSI-027; first compound 0.3162 µM): 0.607 | relative viability (Linifanib + Decitabine; first compound 0.03162 µM): 0.264 | relative viability (Linifanib + Decitabine; first compound 0.1 µM): 0.291 | relative viability (Linifanib + Decitabine; first compound 0.3162 µM): 0.253

NCI-H460
relative viability (Linifanib + Trametinib; first compound 0.03162 µM): 0.178 | relative viability (Linifanib + Trametinib; first compound 0.1 µM): 0.168 | relative viability (Linifanib + Trametinib; first compound 0.3162 µM): 0.146 | relative viability (Linifanib + Vorinostat; first compound 0.03162 µM): 0.713 | relative viability (Linifanib + Vorinostat; first compound 0.1 µM): 0.877 | relative viability (Linifanib + Vorinostat; first compound 0.3162 µM): 0.596 | relative viability (Linifanib + Dasatinib; first compound 0.03162 µM): 0.577 | relative viability (Linifanib + Dasatinib; first compound 0.1 µM): 0.6 | relative viability (Linifanib + Dasatinib; first compound 0.3162 µM): 0.508 | relative viability (Linifanib + OSI-027; first compound 0.03162 µM): 0.682 | relative viability (Linifanib + OSI-027; first compound 0.1 µM): 0.768 | relative viability (Linifanib + OSI-027; first compound 0.3162 µM): 0.611 | relative viability (Linifanib + Decitabine; first compound 0.03162 µM): 0.492 | relative viability (Linifanib + Decitabine; first compound 0.1 µM): 0.583 | relative viability (Linifanib + Decitabine; first compound 0.3162 µM): 0.475 | relative viability (Linifanib + Lapatinib; first compound 0.03162 µM): 1.1 | relative viability (Linifanib + Lapatinib; first compound 0.1 µM): 1.11 | relative viability (Linifanib + Lapatinib; first compound 0.3162 µM): 0.697

NCI-H520
relative viability (Linifanib + Trametinib; first compound 0.03162 µM): 0.673 | relative viability (Linifanib + Trametinib; first compound 0.1 µM): 0.803 | relative viability (Linifanib + Trametinib; first compound 0.3162 µM): 0.731 | relative viability (Linifanib + Vorinostat; first compound 0.03162 µM): 0.669 | relative viability (Linifanib + Vorinostat; first compound 0.1 µM): 0.769 | relative viability (Linifanib + Vorinostat; first compound 0.3162 µM): 0.643 | relative viability (Linifanib + Dasatinib; first compound 0.03162 µM): 0.19 | relative viability (Linifanib + Dasatinib; first compound 0.1 µM): 0.206 | relative viability (Linifanib + Dasatinib; first compound 0.3162 µM): 0.208 | relative viability (Linifanib + OSI-027; first compound 0.03162 µM): 0.271 | relative viability (Linifanib + OSI-027; first compound 0.1 µM): 0.313 | relative viability (Linifanib + OSI-027; first compound 0.3162 µM): 0.3 | relative viability (Linifanib + Decitabine; first compound 0.03162 µM): 0.461 | relative viability (Linifanib + Decitabine; first compound 0.1 µM): 0.6 | relative viability (Linifanib + Decitabine; first compound 0.3162 µM): 0.542 | relative viability (Linifanib + Lapatinib; first compound 0.03162 µM): 1 | relative viability (Linifanib + Lapatinib; first compound 0.1 µM): 1.03 | relative viability (Linifanib + Lapatinib; first compound 0.3162 µM): 0.895

NCI-H1792
relative viability (Linifanib + Trametinib; first compound 0.03162 µM): 0.389 | relative viability (Linifanib + Trametinib; first compound 0.1 µM): 0.459 | relative viability (Linifanib + Trametinib; first compound 0.3162 µM): 0.439 | relative viability (Linifanib + Dasatinib; first compound 0.03162 µM): 0.622 | relative viability (Linifanib + Dasatinib; first compound 0.1 µM): 0.774 | relative viability (Linifanib + Dasatinib; first compound 0.3162 µM): 0.819 | relative viability (Linifanib + OSI-027; first compound 0.03162 µM): 0.526 | relative viability (Linifanib + OSI-027; first compound 0.1 µM): 0.701 | relative viability (Linifanib + OSI-027; first compound 0.3162 µM): 0.663 | relative viability (Linifanib + Decitabine; first compound 0.03162 µM): 0.525 | relative viability (Linifanib + Decitabine; first compound 0.1 µM): 0.643 | relative viability (Linifanib + Decitabine; first compound 0.3162 µM): 0.464 | relative viability (Linifanib + Lapatinib; first compound 0.03162 µM): 0.961 | relative viability (Linifanib + Lapatinib; first compound 0.1 µM): 0.973 | relative viability (Linifanib + Lapatinib; first compound 0.3162 µM): 0.891

NCI-H2228
relative viability (Linifanib + Trametinib; first compound 0.03162 µM): 0.511 | relative viability (Linifanib + Trametinib; first compound 0.1 µM): 0.719 | relative viability (Linifanib + Trametinib; first compound 0.3162 µM): 0.587 | relative viability (Linifanib + Vorinostat; first compound 0.03162 µM): 0.794 | relative viability (Linifanib + Vorinostat; first compound 0.1 µM): 0.808 | relative viability (Linifanib + Vorinostat; first compound 0.3162 µM): 0.603 | relative viability (Linifanib + Dasatinib; first compound 0.03162 µM): 0.541 | relative viability (Linifanib + Dasatinib; first compound 0.1 µM): 0.556 | relative viability (Linifanib + Dasatinib; first compound 0.3162 µM): 0.538 | relative viability (Linifanib + OSI-027; first compound 0.03162 µM): 0.647 | relative viability (Linifanib + OSI-027; first compound 0.1 µM): 0.747 | relative viability (Linifanib + OSI-027; first compound 0.3162 µM): 0.663 | relative viability (Linifanib + Lapatinib; first compound 0.03162 µM): 0.998 | relative viability (Linifanib + Lapatinib; first compound 0.1 µM): 1.3 | relative viability (Linifanib + Lapatinib; first compound 0.3162 µM): 0.922

NCI-H2342
relative viability (Linifanib + Trametinib; first compound 0.03162 µM): 0.848 | relative viability (Linifanib + Trametinib; first compound 0.1 µM): 0.744 | relative viability (Linifanib + Trametinib; first compound 0.3162 µM): 0.878 | relative viability (Linifanib + Vorinostat; first compound 0.03162 µM): 0.825 | relative viability (Linifanib + Vorinostat; first compound 0.1 µM): 0.771 | relative viability (Linifanib + Vorinostat; first compound 0.3162 µM): 0.734 | relative viability (Linifanib + Dasatinib; first compound 0.03162 µM): 0.333 | relative viability (Linifanib + Dasatinib; first compound 0.1 µM): 0.331 | relative viability (Linifanib + Dasatinib; first compound 0.3162 µM): 0.332 | relative viability (Linifanib + OSI-027; first compound 0.03162 µM): 0.638 | relative viability (Linifanib + OSI-027; first compound 0.1 µM): 0.654 | relative viability (Linifanib + OSI-027; first compound 0.3162 µM): 0.624 | relative viability (Linifanib + Decitabine; first compound 0.03162 µM): 0.732 | relative viability (Linifanib + Decitabine; first compound 0.1 µM): 0.713 | relative viability (Linifanib + Decitabine; first compound 0.3162 µM): 0.768

SW 900
relative viability (Linifanib + Trametinib; first compound 0.03162 µM): 0.76 | relative viability (Linifanib + Trametinib; first compound 0.1 µM): 0.83 | relative viability (Linifanib + Trametinib; first compound 0.3162 µM): 0.912 | relative viability (Linifanib + Vorinostat; first compound 0.03162 µM): 0.57 | relative viability (Linifanib + Vorinostat; first compound 0.1 µM): 0.603 | relative viability (Linifanib + Vorinostat; first compound 0.3162 µM): 0.485 | relative viability (Linifanib + Dasatinib; first compound 0.03162 µM): 0.824 | relative viability (Linifanib + Dasatinib; first compound 0.1 µM): 0.548 | relative viability (Linifanib + Dasatinib; first compound 0.3162 µM): 0.578 | relative viability (Linifanib + OSI-027; first compound 0.03162 µM): 0.507 | relative viability (Linifanib + OSI-027; first compound 0.1 µM): 0.808 | relative viability (Linifanib + OSI-027; first compound 0.3162 µM): 0.47 | relative viability (Linifanib + Decitabine; first compound 0.03162 µM): 0.478 | relative viability (Linifanib + Decitabine; first compound 0.1 µM): 0.515 | relative viability (Linifanib + Decitabine; first compound 0.3162 µM): 0.474
